Assay results taken from patent WO2010003376A1, “Methods for treatment and/or prevention of cancer with andrographolide (and) and use thereof” (Chinese University of Hong Kong CUHK, priority 2008, dated 2010).
Like-named read-outs stand apart in the source and are kept apart here.

Columns and labels:
p21 (Waf1/Cip1/Sdi1) = experiment: Western blot of p21 in rat liver; type: in vivo; settings: both experiments, 10 mg/kg orally, vs positive control
[1] = system: total p53 (wild type and mutant); experiment: Western blot of total p53 in rat liver nuclei; type: in vivo; settings: 10 mg/kg orally
[2] = system: liver damage in rats (DEN & CCl4); experiment: Serum AST and ALT assays, DEN/CCl4 hepatocarcinogenesis; type: in vivo, rat; settings: 10 mg/kg orally
[3] = system: Clone 9, rat normal liver cells; experiment: Neutral red assay (cell viability), Clone 9; type: cell-based; settings: for IC50: Rattus norvegicus, read-out: IC50 (concentration that reduces cell viability by 50%)
HepG2 cells [4] = experiment: DNA fragmentation (DNA gel electrophoresis); type: cell-based, human; settings: 50 μM, 72 hrs
[5] = system: hepatocarcinogenesis in rats (DEN & CCl4); experiment: Gross examination of rat liver, DEN/CCl4 hepatocarcinogenesis; type: in vivo
PCNA = experiment: Western blot of PCNA in rat liver; type: in vivo; settings: 10 mg/kg orally; for PCNA expression (PCNA : β-actin ratio): vs positive control
rat liver (DEN & CCl4) = experiment: Hematoxylin & Eosin staining of rat liver sections; type: in vivo; settings: 10 mg/kg orally
[6] = system: hepatocarcinogenesis in rats (DEN & CCl4); experiment: Relative liver weight, DEN/CCl4 hepatocarcinogenesis; type: in vivo, rat; settings: both promotion and progression, 10 mg/kg orally
Bcl-2 = experiment: Western blot of Bcl-2 in rat liver; type: in vivo; settings: both experiments, 10 mg/kg orally
[7] = system: HepG2 cells, the human liver cancer cells; experiment: Neutral red assay (cell viability), HepG2; type: cell-based; settings: for IC50: Homo sapiens, read-out: IC50 (concentration that reduces cell viability by 50%)
GST-P = experiment: Immunohistochemical staining of GST-P foci in rat liver; type: in vivo
wild type p53 = experiment: Immunoprecipitation and western blot of wild type p53 in rat liver nuclei; type: in vivo; settings: 10 mg/kg orally
[8] = system: WRL 68, human normal liver embryo cells; experiment: Neutral red assay (cell viability), WRL 68; type: cell-based; settings: for IC50: Homo sapiens, WRL68, read-out: IC50 (concentration that reduces cell viability by 50%)
[9] = system: gene expressions of HepG2 cells; experiment: cDNA microarray analysis of gene expression (human toxicology and drug metabolism); type: cell-based; settings: 16 μM, 48 hrs, vs control
Bax = experiment: Western blot of Bax in rat liver; type: in vivo; settings: both experiments, 10 mg/kg orally
p53 mRNA = experiment: Semi-quantitative RT-PCR of p53 mRNA in rat liver; type: in vivo; settings: both experiments, 10 mg/kg orally, vs positive control (p < 0.05)
Mdm2 mRNA = experiment: Semi-quantitative RT-PCR of Mdm2 mRNA in rat liver; type: in vivo; settings: both experiments, 10 mg/kg orally, vs positive control (p < 0.05)
Mdm2 = experiment: Western blot of Mdm2 in rat liver nuclei; type: in vivo; settings: both experiments, 10 mg/kg orally, vs positive control (p < 0.05)
HepG2 cells [10] = experiment: Flow cytometry (cell cycle analysis, PI staining); type: cell-based, human
[11] = progression experiment, p < 0.05

With `C=C1CC[C@@H]2[C@](C)(CO)[C@H](O)CC[C@@]2(C)[C@@H]1C/C=C1/C(=O)OC[C@H]1O` [AND, andrographolide] the “levels of p21 (p21 : β-actin ratio)” value (p21 (Waf1/Cip1/Sdi1)) was “higher than positive control groups, but no significant difference is observed”, the “total p53 protein level (discussion)” value ([1]; AND-treated group) was “the total p53 protein was increased” and the “levels of total p53 protein expression” value ([1]; both experiments, vs negative control (no significant difference)) was “higher levels of total p53 protein expression”. The “levels of total p53 (total p53 : β-actin ratio)” value ([1]; both experiments, vs positive control) was “no significant difference”, the “serum ALT level” value [2, 11] was “significant reduction” and the “serum AST level” value [2, 11] was “significant reduction”. The “serum ALT level” value ([2]; promotion experiment, p < 0.01) was “significant reduction”, the “serum AST level” value ([2]; promotion experiment, p < 0.01) was “significant reduction” and the cytotoxicity ([3]; Clone 9, at a concentration of 18 μM (Fig. 3)) was “significant cytotoxicity was also detectable”. The IC50 ([3]; Clone 9, 24 hrs) was 22 µM, the IC50 ([3]; Clone 9, 48 hrs) was 18 µM and the IC50 ([3]; Clone 9, 72 hrs) was 18 µM. The DNA fragmentation (HepG2 cells [4]) was “fragmentation at around 200 bp was detected”, the “gross appearance of liver” value ([5]; progression experiment, 10 mg/kg orally, 56th week) was “some nodules present on the surface of the AND-treated livers, but the structure of the livers generally resembled that of the normal livers” and the “gross appearance of liver” value ([5]; promotion experiment, 10 mg/kg orally once daily, 28 weeks) was “had a smooth surface and generally resembled the negative control livers”. The PCNA expression (PCNA; both experiments) was “reduced in both experiments”, the “PCNA expression (PCNA : β-actin ratio)” value (PCNA; progression experiment) was “The level of PCNA expression in DEN-CCl4 treated rat was found to be significantly higher than that in the negative control and AND-treated groups” and the “PCNA expression (PCNA : β-actin ratio)” value (PCNA; promotion experiment) was “no significant difference”. For the same compound, the “liver histology (H & E staining)” value (rat liver (DEN & CCl4); progression experiment) was “normal alignment of hepatocytes around central vein”, the “liver histology (H & E staining)” value (rat liver (DEN & CCl4); promotion experiment) was “Liver structure was restored and hepatocyte arrangement was not as distorted as that of the positive control sections. Vacuolization was reduced and distinct cytoplasm was visible” and the “relative liver weight (liver weight/body weight)” value ([6]; vs negative control) was “No significant difference”. For the same compound, the “relative liver weight (liver weight/body weight)” value ([6]; vs positive control) was “significant reduction”, the “Bcl-2 expression” value (Bcl-2) was “an increase in Bcl-2 expression” and the “Bcl-2 protein expression (Bcl-2 : β-actin ratio)” value (Bcl-2; vs positive control (p < 0.05)) was “significantly lower”. The “inhibitory effect on the proliferation of HepG2” value ([7]; HepG2, human liver cancer cell line (Fig. 1)) was “significantly inhibitory effect”, the IC50 ([7]; HepG2, 24 hrs) was 17.5 µM and the IC50 ([7]; HepG2, 48 hrs) was 16 µM. The IC50 ([7]; HepG2, 72 hrs) was 17 µM, the “IC50 for HepG2 cells compared with WRL 68 cells” value ([7]; all three time periods (24, 48 and 72 hrs), P < 0.05) was “significantly lower” and the “number and area of GST-P positive foci” value (GST-P; 10 mg/kg for 24 and 52 weeks, promotion and progression stages) was “a decrease in the number and area of GST-P positive foci”. For the same compound, the “GST-P expression in liver section” value (GST-P; promotion experiment, 10 mg/kg orally) was “the expression of GST-P was present but the affected area was reduced”, the “level of wild type p53 (wt. p53 : β-actin ratio)” value (wild type p53; progression experiment, vs positive control (p < 0.05)) was “a significant increase” and the “level of wild type p53 (wt. p53 : β-actin ratio)” value (wild type p53; promotion experiment, vs positive control) was “no significant difference”. The IC50 ([8]; WRL 68, 24 hrs) was 57 µM, the IC50 ([8]; WRL 68, 48 hrs) was 30 µM and the IC50 ([8]; WRL 68, 72 hrs) was 35 µM. For the same compound, the cytotoxicity ([8]; WRL 68, at a concentration of 18 μM (Fig. 2)) was “significant cytotoxicity was also detectable”, the “expression of BCL2L2 (Bcl-w) gene” value [9] was “down-regulated” and the “expression of BCL2 gene” value [9] was “down-regulated”. The “expression of CCND1 gene” value [9] was “down-regulated”, the “expression of CHEK2 gene” value [9] was “down-regulated” and the “expression of CYP 2A6 gene” value [9] was “down-regulated”. For the same compound, the “expression of CYP 2D6 gene” value [9] was “down-regulated”, the “expression of IL1B gene” value [9] was “under-expressed” and the “expression of NFKB2 gene” value [9] was “under-expressed”. For the same compound, the “expression of NQO1 (NAD(P)H dehydrogenase quinone 1) gene” value [9] was “up-regulated”, the “expression of RB1 gene” value [9] was “up-regulated” and the “expression of SOD1 (superoxide dismutase 1) gene” value [9] was “up-regulated”. For the same compound, the “expression of TYMS (thymidylate synthetase) gene” value [9] was “up-regulated”, the “expression of XDH (xanthine dehydrogenase) gene” value [9] was “up-regulated” and the “number of genes down-regulated 3-folds or more” value [9] was “forty-two”. For the same compound, the “number of genes up-regulated 3-folds or more” value [9] was “six”, the “Bax expression” value (Bax) was “a reduction of Bax expression” and the “protein levels of Bax (Bax : β-actin ratio)” value (Bax; vs positive control (p < 0.05)) was “significantly increased”. For the same compound, the “p53 mRNA expression (p53 : β-actin)” value (p53 mRNA) was “significant reduction”, the “Mdm2 mRNA expression (Mdm2 : β-actin)” value (Mdm2 mRNA) was “significantly reduced” and the “levels of Mdm2 protein (Mdm2 : β-actin ratio)” value (Mdm2) was “significant decrease”. The “percentage of cells suspended in the sub G1 phase of the cell cycle” value (HepG2 cells [10]; 25 μM (Fig. 7, 48 hrs)) was 13.1%, the “accumulation of cells in G0/G1 phase of the cell cycle” value (HepG2 cells [10]; 25 μM, 48 hrs (Fig. 7)) was 67.1% and the “populations of cells suspended in S and G2/M phases” value (HepG2 cells [10]; 12.5 and 25 μM AND, 48 hrs, vs control (P < 0.05)) was “significantly decreased”. For the same compound, the “accumulation of cells in the sub G1 and G0/G1 phases” value (HepG2 cells [10]; 12.5 and 25 μM AND, 48 hrs, vs control cells) was “significantly induced the accumulation of cells”, the “cells suspended in sub G1 phase” value (HepG2 cells [10]; 20 and 25 μM AND, 24 hrs, vs 1% DMSO) was “more cells were suspended in sub Gi phase than those treated with DMSO only” and the “population of cells suspended in G0/G1, S and G2/M phases” value (HepG2 cells [10]; 20 and 25 μM AND, 24 hrs, vs control cells (P > 0.05)) was “no significant changes”.
